Measured values: US8702959B2, “System and method for detecting a substance in liquid” (priority 2009, dated 2014)

Experiments:
[1] = tested on: E. coli reporter strain panel
Method: The AP activity was measured electrochemically at potential […] by making use of pAPP in a point assay after induction period. The determined SOS-induction factors for each concentration level are plotted against each other.
To increase the capabilities of the reporter cells as genotoxicity bioreporters, a series of knock-out mutations was introduced to the E. coli RFM443's genome. The genes that were selected to be deleted are genes affiliated with DNA repair mechanisms (Nucleotide Exicision Repair, uvrA; DNA Pol V, umuD) and a structural gene that can influence cell permeability (lipopolysaccharide, rfaE). […] The deletion mutations in uvrA and umuD were transferred by P1 transduction. […] From each gene deletion experiment, eight Km^R colonies were chosen and checked for the correct mutation structure by PCR using a combination of locus- and kanamycin-specific primers (Table 1). PCR fragments with the right size of both junctions were sent to sequencing. Sequences were indentified using BLAST program operating on the default options querying the NCBI nucleotide collection database. The construction of double or triple mutants was obtained by the elimination of the resistance using a helper plasmid expressing the FLP recombinase, which acts on the FRT (FLP recognition target) sites flanking the resistance gene. Using the methods described above, a set of mutated reporter strains was constructed as detailed in Table 2. Strains dedicated to harbor the phoA reporter gene were also engineered to contain a deletion in the chromosomal phoA gene to eliminate the possibility of native PhoA activity.

[2] = tested on: Salmonella typhimurium TA1535 pSK1002 cells; assay: Genotoxicity bio-detection of IQ with Salmonella typhimurium umuC'-'lacZ reporter, amperometry on micro-chip; format: cell-based
Method: Salmonella typhimurium TA1535 pSK1002 [Y. Oda et al., Mutat. Res. 147 (1985) 219] cells were used for the IQ bio-detection. The construction of the pSK1002 plasmid was reported in H. Shinagawa et al. Gene. 23 (1983) 167, which is hereby incorporated by reference in its entirety. The exposition of bacteria was done according to Reifferscheid et al. [Reifferscheid et al., Mutat. Res. 253 (1991) 215]. An over night culture of the bacteria was refreshed in 20 ml TGA-medium (1:10 dilution of bacteria) and grown for further 2 h (37° C., 150 rpm). Prior to exposition the optical density (λ=595 nm) of the bacterial culture was adjusted to 0.44 by dilution with TGA medium. […] The OD595 of the exposed mixture was measured after an incubation time of 2 h at 37° C. and 900 rpm in shaking conditions.
The activity of the reporter enzyme β-galactosidase in the induced bacteria was measured by making use of the substrate para-Aminophenyl β-D-galactopyranoside (pAPG, 0.5 mM final concentration, Sigma). Shortly after the addition of pAPG, aliquots of 3 μl were introduced into the electrochemical microchambers and a constant potential of 300 mV vs. Ag/AgCl was applied on the electrochemical chamber in order to quantify the enzymatically generated product pAP. The setup was connected in such a way that the output current was monitored (i.e. amperometry measurement).

[3] = tested on: Escherichia coli RFM443/pBR2TTS cells harboring a sulA::phoA fusion; format: cell-based
Method: Escherichia coli RFM443/pBR2TTS cells harboring a sulA::phoA fusion were grown overnight in MOPS growth medium containing 0.1 mg/ml ampicillin with shaking conditions at 37° C. The overnight culture was diluted ×1/100, regrown to an optical density of 0.2 (600 nm). Finally NA (FW 254.22, Sigma) was added to a final concentration of 10 μg/ml. Following further incubation at various times of 0, 60, 90, or 120 minutes under similar conditions, aliquots of 3 μl were introduced into the electrochemical microchambers. Shortly after applying a constant potential of 300 mV vs. Ag/AgCl in the electrochemical chamber, the enzymatic substrate para-Aminophenyl phosphate (pAPP, MW 211.09, diagnoSwiss) was added reaching a concentration of 0.8 mg/ml.
Control samples were prepared with the addition of growth medium instead of NA or pAPP to the incubation stage in order to verify the influence of NA on the induction of the bacteria and pAPP on the generated bio-electrochemical response.

Structure (SMILES): OO [H2O2, hydrogen peroxide]
- response of the reporter to model genotoxicants ([1]; AP activity measured electrochemically at potential 0.3 mV with pAPP, point assay after induction, FIG. 14): responsive
- response of the uvrA mutant reporter strain ([1]; uvrA mutant, FIG. 14): elevated response

Structure (SMILES): Cn1c(N)nc2c3cccnc3ccc21 [IQ, 2-Amino-3-methylimidazo[4,5-f]quinoline]
- dependence of the differential slope of the electrochemical current on concentration ([2]; IQ 5, 1.25, 0.31 μM activated with S9-fraction, 2 h, pAPG 0.5 mM, 300 mV vs. Ag/AgCl, FIG. 11A): more rapidly increasing electrochemical current characteristics
- detection by the prototype biosensor ([2]; microfluidic whole cell prototype biosensor, genotoxic material): successfully detected
- response of the reporter strain mutated in uvrA and rfaE genes ([1]; following metabolic activation with lyophilized liver S9 fraction, compared with umu-test reporter strain): responded

Structure (SMILES): CCn1cc(C(=O)O)c(=O)c2ccc(C)nc21 [NA, Nalidixic acid]
- response of the ΔrfaE reporter strains ([1]; ΔrfaE mutants, FIG. 14): respond to lower concentrations
- chrono-amperometric response of E. coli bacteria in the presence of toxicant after pAPP was added ([3]; NA 10 μg/ml, 1 hr incubation, pAPP 0.8 mg/ml, 300 mV vs. Ag/AgCl, FIG. 10A): increasing electrochemical current
- electrochemical current of induced bacteria compared with non-induced bacteria, pAPP added to both ([3]; NA 10 μg/ml, 1 hr incubation, pAPP 0.8 mg/ml, FIG. 10A): more rapidly increasing electrochemical current than non-induced bacteria
- effect of induction time on the slope of the detected electrochemical current ([3]; NA 10 μg/ml, induction 0, 60, 90 or 120 minutes, FIGS. 10B-C): For longer induction times the current increased more rapidly
- detection by the prototype biosensor ([3]; microfluidic whole cell prototype biosensor, model toxicant): successfully detected
